Like-named read-outs stand apart in the source and are kept apart here. Values belong to the compound of their own block, whether it stands above or below them.
Target: TRPV1 (Rattus norvegicus (Rat), UniProt O35433)
Assay: Ca2+ fluorescence measurements in cultured rat dorsal root ganglia neurons (capsaicin-induced calcium uptake)
Format: cell-based
Details: rat DRG neurons; for inhibition at 0.3 µM: DRG neuron
[1] = Table 1, formula IA-C, 300 nM against calcium uptake induced by 30 nM capsaicin, read-out: % inhibition at 300 nM
[2] = 300 nM, read-out: abolition of capsaicin response at 300 nM
[3] = capsaicin-induced calcium uptake, read-out: inhibition of the calcium uptake
[4] = read-out: IC50 against capsaicin-evoked [Ca2+]i mobilization
[5] = Table 1, against capsaicin-evoked [Ca2+]i mobilization, read-out: IC50
[6] = Table 3, formula IF-H, 300 nM against calcium uptake induced by 30 nM capsaicin, read-out: % inhibition at 300 nM

Chain of TRPV1 (O35433 whole entry): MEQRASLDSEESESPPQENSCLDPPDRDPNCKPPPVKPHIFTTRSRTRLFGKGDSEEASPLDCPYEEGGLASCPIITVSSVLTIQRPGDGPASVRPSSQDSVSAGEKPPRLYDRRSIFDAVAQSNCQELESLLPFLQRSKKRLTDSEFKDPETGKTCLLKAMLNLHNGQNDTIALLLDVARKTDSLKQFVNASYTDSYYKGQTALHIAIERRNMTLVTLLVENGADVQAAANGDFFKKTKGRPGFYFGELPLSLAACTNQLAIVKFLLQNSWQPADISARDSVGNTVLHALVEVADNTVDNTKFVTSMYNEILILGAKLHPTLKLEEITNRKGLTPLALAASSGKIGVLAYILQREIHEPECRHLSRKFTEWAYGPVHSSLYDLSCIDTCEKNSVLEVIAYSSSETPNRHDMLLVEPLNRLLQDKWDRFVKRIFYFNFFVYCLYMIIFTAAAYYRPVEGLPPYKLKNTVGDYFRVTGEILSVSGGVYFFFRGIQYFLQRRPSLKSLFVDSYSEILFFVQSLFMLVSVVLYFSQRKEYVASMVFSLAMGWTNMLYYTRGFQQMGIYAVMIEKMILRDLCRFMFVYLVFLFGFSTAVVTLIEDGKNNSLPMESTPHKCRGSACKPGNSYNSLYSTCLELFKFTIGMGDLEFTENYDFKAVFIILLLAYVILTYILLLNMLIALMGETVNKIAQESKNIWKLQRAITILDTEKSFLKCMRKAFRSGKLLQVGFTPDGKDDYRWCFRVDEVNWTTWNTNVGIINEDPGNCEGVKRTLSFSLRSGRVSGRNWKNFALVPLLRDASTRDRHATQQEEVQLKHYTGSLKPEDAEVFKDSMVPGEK

inhibition at 0.3 µM [1]: 52%
SMILES: Cc1ccc(CNC(=O)Nc2cccc3[nH]c(=O)[nH]c23)c(N2CCCCC2)n1 [Example 40, 1-[[6-methyl-2-(1-piperidyl)-3-pyridyl]methyl]-3-(2-oxo-1,3-dihydrobenzimidazol-4-yl)urea]

inhibition at 0.3 µM [1]: 23%
SMILES: O=C1COc2cccc(NC(=O)NCc3ccc(C(F)(F)F)cc3N3CCCC3)c2N1 [Example 43, 1-(4-(trifluoromethyl)-2-(pyrrolidin-1-yl)benzyl)-3-(3,4-dihydro-3-oxo-2H-benzo[b][1,4]oxazin-5-yl)urea]

inhibition at 0.3 µM (Table 2, formula ID-E, 300 nM against calcium uptake induced by 30 nM capsaicin, read-out: % inhibition at 300 nM): 43%
SMILES: O=C(Cc1ccc(C(F)(F)F)cc1)Nc1cccc2c1NC(=O)CO2 [Example 58, 2-(4-(trifluoromethyl)phenyl)-N-(3,4-dihydro-3-oxo-2H-benzo[b][1,4]oxazin-5-yl)acetamide]

inhibition at 0.3 µM [2]: ~100%
inhibition at 0.3 µM [1]: 98%
inhibition at 0.3 µM [3]: > 80%
SMILES: CC(C)(C)c1ccc(CNC(=O)Nc2cccc3[nH]c(=O)[nH]c23)cc1 [Example 70, 1-[(4-tert-butylphenyl)methyl]-3-(2-oxo-1,3-dihydrobenzimidazol-4-yl)urea]

inhibition at 0.3 µM [2]: ~100%
inhibition at 0.3 µM [1]: 100%
inhibition at 0.3 µM [3]: > 80%
IC50 [4]: 0.61 nM
SMILES: O=C1COc2c(cccc2NC(=O)NCc2ccc(C(F)(F)F)nc2N2CCCCC2)N1 [Example 78, 1-(3-oxo-4H-1,4-benzoxazin-8-yl)-3-[[2-(1-piperidyl)-6-(trifluoromethyl)-3-pyridyl]methyl]urea]

inhibition at 0.3 µM [1]: 52%
SMILES: CN(C)c1cc(Cl)ccc1CNC(=O)Nc1cccc2c1OCC(=O)N2 [Example 50, 1-(4-chloro-2-(dimethylamino)benzyl)-3-(3,4-dihydro-3-oxo-2H-benzo[b][1,4]oxazin-8-yl)urea]

inhibition at 0.3 µM [2]: ~100%
inhibition at 0.3 µM [1]: 95%
inhibition at 0.3 µM [3]: > 80%
SMILES: Cc1ccc(CNC(=O)Nc2cccc3c2OCC(=O)N3)c(N2CCCCC2)n1 [Example 80, 1-[[6-methyl-2-(1-piperidyl)-3-pyridyl]methyl]-3-(3-oxo-4H-1,4-benzoxazin-8-yl)urea]

inhibition at 0.3 µM [1]: 44%
SMILES: O=C(NCc1ccc(C(F)(F)F)cc1N1CCCC1)Nc1cccc2oc(=O)[nH]c12 [Example 30, 1-(4-(trifluoromethyl)-2-(pyrrolidin-1-yl)benzyl)-3-(2,3-dihydro-2-oxobenzo[d]oxazol-4-yl)urea]

inhibition at 0.3 µM [2]: ~100%
inhibition at 0.3 µM [1]: 100%
inhibition at 0.3 µM [3]: > 80%
IC50 [5]: 0.84 nM
IC50 [4]: 0.84 nM
SMILES: CC(C)(C)c1ccc(CNC(=O)Nc2cccc3[nH]c(=O)[nH]c23)c(N2CCCC2)c1 [Example 75, 1-[(4-tert-butyl-2-pyrrolidin-1-yl-phenyl)methyl]-3-(2-oxo-1,3-dihydrobenzimidazol-4-yl)urea]

inhibition at 0.3 µM [1]: 25%
IC50 [5]: 1.8 nM
IC50 [4]: 0.1 nM
SMILES: CN(C)CCOc1cc(C(F)(F)F)ccc1CNC(=O)Nc1cccc2[nH]c(=O)[nH]c12 [Example 73, 1-[[2-(2-dimethylaminoethoxy)-4-(trifluoromethyl)phenyl]methyl]-3-(2-oxo-1,3-dihydrobenzimidazol-4-yl)urea]

inhibition at 0.3 µM [1]: 32%
SMILES: CN(C)c1ccc(CNC(=O)Nc2cccc3[nH]c(=O)[nH]c23)cc1 [Example 14, 1-(4-(dimethylamino)benzyl)-3-(2,3-dihydro-2-oxo-1H-benzo[d]imidazol-4-yl)urea]

inhibition at 0.3 µM [2]: ~100%
inhibition at 0.3 µM [1]: 100%
inhibition at 0.3 µM [3]: > 80%
SMILES: CC(C)Oc1cc(C(F)(F)F)ccc1CNC(=O)Nc1cccc2c1OCC(=O)N2 [Example 81, 1-[[2-isopropoxy-4-(trifluoromethyl)phenyl]methyl]-3-(3-oxo-4H-1,4-benzoxazin-8-yl)urea]

inhibition at 0.3 µM [1]: 47%
SMILES: O=C1COc2cccc(NC(=O)NCc3ccc(C(F)(F)F)cc3N3CCCCC3)c2N1 [Example 44, 1-(4-(trifluoromethyl)-2-(piperidin-1-yl)benzyl)-3-(3,4-dihydro-3-oxo-2H-benzo[b][1,4]oxazin-5-yl)urea]

inhibition at 0.3 µM [2]: ~100%
inhibition at 0.3 µM [1]: 98%
SMILES: O=C1COc2c(cccc2NC(=O)NCc2ccc(Cl)cc2N2CCCCC2)N1 [Example 52, 1-(4-chloro-2-(piperidin-1-yl)benzyl)-3-(3,4-dihydro-3-oxo-2H-benzo[b][1,4]oxazin-8-yl)urea]

inhibition at 0.3 µM [2]: ~100%
inhibition at 0.3 µM [1]: 90%
inhibition at 0.3 µM [3]: > 80%
SMILES: Cc1ccc(CNC(=O)Nc2cccc3c2OCC(=O)N3)c(N2CCCCC2)c1 [Example 53, 1-(4-methyl-2-(piperidin-1-yl)benzyl)-3-(3,4-dihydro-3-oxo-2H-benzo[b][1,4]oxazin-8-yl)urea]

inhibition at 0.3 µM [1]: 33%
SMILES: O=C(NCc1ccc(C(F)(F)F)cc1N1CCOCC1)Nc1cccc2[nH]c(=O)[nH]c12 [Example 7, 1-(4-(trifluoromethyl)-2-(4-morpholino)benzyl)-3-(2,3-dihydro-2-oxo-1H-benzo[d]imidazol-4-yl)urea]

inhibition at 0.3 µM [1]: 61%
SMILES: Cc1ccc(CNC(=O)Nc2cccc3c2OCC(=O)N3)c(OC(C)C)c1 [Example 84, 1-[(2-isopropoxy-4-methyl-phenyl)methyl]-3-(3-oxo-4H-1,4-benzoxazin-8-yl)urea]

inhibition at 0.3 µM [6]: 79%
SMILES: O=C1COc2cccc(C(=O)NCc3ccc(C(F)(F)F)cc3N3CCCCC3)c2N1 [Example 63, N-(4-(trifluoromethyl)-2-(piperidin-1-yl)benzyl)-3,4-dihydro-3-oxo-2H-benzo[b][1,4]oxazine-5-carboxamide]

inhibition at 0.3 µM [6]: 8%
SMILES: O=C1COc2cccc(C(=O)NCc3ccc(C(F)(F)F)cc3)c2N1 [Example 62, N-(4-(trifluoromethyl)benzyl)-3,4-dihydro-3-oxo-2H-benzo[b][1,4]oxazine-5-carboxamide]

inhibition at 0.3 µM [1]: 47%
SMILES: Cc1ccc(CNC(=O)Nc2cccc3c2OCC(=O)N3)c(N2CCCC2)c1 [Example 90, 1-[(4-methyl-2-pyrrolidin-1-yl-phenyl)methyl]-3-(3-oxo-4H-1,4-benzoxazin-8-yl)urea]

inhibition at 0.3 µM [1]: 75%
SMILES: O=C1COc2c(cccc2NC(=O)NCc2ccc(C(F)(F)F)cc2-n2ccnc2)N1 [Example 88, 1-[[2-(imidazol-1-yl)-4-(trifluoromethyl)phenyl]methyl]-3-(3-oxo-4H-1,4-benzoxazin-8-yl)urea]

inhibition at 0.3 µM [1]: 82%
inhibition at 0.3 µM [3]: > 80%
IC50 [5]: 12 nM
SMILES: CN(C)c1cc(Cl)ccc1CNC(=O)Nc1cccc2[nH]c(=O)[nH]c12 [Example 11, 1-(4-chloro-2-(dimethylamino)benzyl)-3-(2,3-dihydro-2-oxo-1H-benzo[d]imidazol-4-yl)urea]

inhibition at 0.3 µM [1]: 40%
SMILES: O=C1COc2c(cccc2NC(=O)NCc2ccc(C(F)(F)F)o2)N1 [Example 76, 1-(3-oxo-4H-1,4-benzoxazin-8-yl)-3-[[5-(trifluoromethyl)-2-furyl]methyl]urea]

inhibition at 0.3 µM [1]: 54%
SMILES: Cc1ccc(CNC(=O)Nc2cccc3[nH]c(=O)[nH]c23)c(N(C)C)c1 [Example 18, 1-(2-(dimethylamino)-4-methylbenzyl)-3-(2,3-dihydro-2-oxo-1H-benzo[d]imidazol-4-yl)urea]

inhibition at 0.3 µM [6]: 15%
SMILES: O=C(NCc1ccc(C(F)(F)F)cc1N1CCOCC1)c1cccc2oc(=O)[nH]c12 [Example 61, N-(4-(trifluoromethyl)-2-morpholinobenzyl)-2,3-dihydro-2-oxobenzo[d]oxazole-4-carboxamide]
